Article PMC9487510, “A Novel Oral GyrB/ParE Dual Binding Inhibitor Effective against Multidrug-Resistant Neisseria gonorrhoeae and Other High-Threat Pathogens” (Antimicrobial Agents and Chemotherapy, 2022)
≈ marks a conversion by molar mass, not a printed value. Read-outs that look alike come from different tables or passages of the source.

What was measured:
MRSA [1] = assay: MIC, in vitro susceptibility testing (CLSI); type: cell-based, Staphylococcus aureus; conditions: Staphylococcus aureus, MRSA; for MIC: read-out: MIC
MRSE = assay: MIC, in vitro susceptibility testing (CLSI); type: cell-based, Staphylococcus epidermidis; conditions: for MIC: Staphylococcus epidermidis, MRSE, read-out: MIC
C. difficile = assay: MIC, toxigenic C. difficile panel (CLSI); type: cell-based, Clostridioides difficile
E. coli = assay: microbe, parasite or virus in culture; type: cell-based; conditions: Escherichia coli
[2] = Liver microsome stability, mouse; type: in vitro ADME; conditions: male, CD-1, mouse, liver microsomes, pH 7.4
Description: Liver microsome stability assays were performed by BioDuro Inc. Human and mouse (CD-1 male) liver microsomes were used. […] Next, 50 μL of reaction buffer was added to solution and mixed via pipetting up and down 6 times. At each time point of 0, 30, and 60 min, an aliquot of 20 μL was removed from each tube. Liver microsomes (LM) working solution was prepared in 0.05 M phosphate reaction buffer (pH = 7.4) to a final concentration of 1.27 mg/mL. NADPH solution was prepared in 0.05 M phosphate buffer to afford a 5 mM buffer solution. […] After vortexing and incubating for 5 min (37°C), 50 μL of NADPH solution was added and mixed via pipetting. At each time point of 0, 5, 15, 30, and 60 min, an aliquot of 20 μL was removed from each tube. Next, 250 μL of quenching solution was aliquoted to quench the reaction, which was then vortexed for 1 min and placed on ice for 40 min. After centrifugation at 4,000 × g for 15 min, 100 μL of supernatant was transferred using a multichannel pipette to 0.65-mL tubes. Samples were diluted with MeOH: H2O (1:1) as necessary. Samples were analyzed by high-pressure liquid chromatography coupled to tandem mass spectrometry (LC/MS/MS) performed on a Sciex Applied Biosystems Qtrap 4000 triple-quadrupole mass spectrometer coupled to a Shimadzu HPLC system to quantify the remaining compound. Data were processed using Analyst software (version 1.4.2; Applied Biosystems Sciex). […] Metabolite identification on the microsomal extracts was performed using a Q-Exactive HRMS coupled with an Ultimate 3000 HPLC system and a Kinetix C18 2.1 × 50-mm 2.6-μm HPLC column.

Serum protein binding = type: in vitro ADME
MRSA [3] = type: cell-based, S. aureus; conditions: at 1× MIC; resistance not observed; data not shown
hERG K+ channel = hERG K+ channel (Homo sapiens, UniProt Q12809); assay: hERG inhibition, whole-cell patch clamp in HEK-293 cells; conditions: pH 7.4
Chain of hERG K+ channel (Q12809 whole entry): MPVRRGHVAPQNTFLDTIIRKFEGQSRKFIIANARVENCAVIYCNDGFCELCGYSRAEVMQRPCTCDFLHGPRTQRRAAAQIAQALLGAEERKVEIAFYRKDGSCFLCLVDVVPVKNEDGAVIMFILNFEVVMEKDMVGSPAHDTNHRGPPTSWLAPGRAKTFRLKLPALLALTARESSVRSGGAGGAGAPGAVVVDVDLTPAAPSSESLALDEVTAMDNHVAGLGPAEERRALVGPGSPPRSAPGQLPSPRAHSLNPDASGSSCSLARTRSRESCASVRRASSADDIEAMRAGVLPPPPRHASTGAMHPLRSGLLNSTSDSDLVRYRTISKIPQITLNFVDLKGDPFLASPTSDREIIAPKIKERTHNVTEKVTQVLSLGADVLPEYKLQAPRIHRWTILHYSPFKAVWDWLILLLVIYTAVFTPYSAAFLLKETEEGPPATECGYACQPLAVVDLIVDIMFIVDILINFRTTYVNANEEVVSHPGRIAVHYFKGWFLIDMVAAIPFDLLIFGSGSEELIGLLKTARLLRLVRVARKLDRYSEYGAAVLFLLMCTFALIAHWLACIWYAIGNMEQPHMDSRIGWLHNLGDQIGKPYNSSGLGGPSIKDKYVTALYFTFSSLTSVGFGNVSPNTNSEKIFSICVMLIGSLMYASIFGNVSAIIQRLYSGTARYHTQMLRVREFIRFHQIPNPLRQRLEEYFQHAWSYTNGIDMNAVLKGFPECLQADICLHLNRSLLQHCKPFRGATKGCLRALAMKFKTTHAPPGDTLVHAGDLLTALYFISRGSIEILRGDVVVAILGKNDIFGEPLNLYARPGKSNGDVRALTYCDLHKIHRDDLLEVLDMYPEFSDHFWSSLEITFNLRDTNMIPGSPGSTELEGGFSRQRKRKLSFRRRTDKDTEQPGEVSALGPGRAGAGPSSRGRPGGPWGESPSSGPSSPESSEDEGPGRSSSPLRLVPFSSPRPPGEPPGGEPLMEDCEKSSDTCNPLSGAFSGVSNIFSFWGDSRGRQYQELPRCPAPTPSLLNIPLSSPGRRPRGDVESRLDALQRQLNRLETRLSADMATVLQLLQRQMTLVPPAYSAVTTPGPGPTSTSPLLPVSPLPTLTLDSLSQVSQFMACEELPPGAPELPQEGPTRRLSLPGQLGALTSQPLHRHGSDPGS

SMILES: CNc1cc(F)cc2c1[nH]c1nc(Oc3cnc(C)nc3)nc(N3CCC4(CC3)CO[C@@H](CO)C4)c12 [JSF-2414]
- MIC (MRSA [1]; strain 2 79 17): 0.062 µg/mL (≈ 0.126 µM)
- MIC (MRSA [1]; strain 2 79 22): 0.031 µg/mL (≈ 0.0628 µM)
- MIC (MRSA [1]; strain 2 79 25): 0.031 µg/mL (≈ 0.0628 µM)
- MIC (MRSA [1]; strain 2 79 29): 0.016 µg/mL (≈ 0.0324 µM)
- MIC (MRSA [1]; strain 2 79 33): 0.031 µg/mL (≈ 0.0628 µM)
- MIC (MRSA [1]; strain 2 79 65): 0.062 µg/mL (≈ 0.126 µM)
- MIC (MRSA [1]; strain 2 79 67 (first listing)): 0.031 µg/mL (≈ 0.0628 µM)
- MIC (MRSA [1]; strain 2 79 67 (second listing)): 0.031 µg/mL (≈ 0.0628 µM)
- MIC (MRSA [1]; strain 2 80 36): 0.062 µg/mL (≈ 0.126 µM)
- MIC (MRSA [1]; strain 2 80 46): 0.031 µg/mL (≈ 0.0628 µM)
- MIC (MRSA [1]; strain 2 80 48): 0.031 µg/mL (≈ 0.0628 µM)
- MIC (MRSA [1]; strain 2 80 62): 0.031 µg/mL (≈ 0.0628 µM)
- MIC (MRSA [1]; strain 2 80 67): 0.062 µg/mL (≈ 0.126 µM)
- MIC (MRSA [1]; strain 2 81 54): 0.031 µg/mL (≈ 0.0628 µM)
- MIC (MRSA [1]; strain 2 85 12): 0.016 µg/mL (≈ 0.0324 µM)
- MIC (MRSA [1]; strain 2 85 13): 0.008 µg/mL (≈ 0.0162 µM)
- MIC (MRSA [1]; strain 2 85 14): 0.031 µg/mL (≈ 0.0628 µM)
- MIC (MRSA [1]; strain 2 85 32): 0.062 µg/mL (≈ 0.126 µM)
- MIC (MRSA [1]; strain 2 87 54): 0.031 µg/mL (≈ 0.0628 µM)
- MIC (MRSA [1]; strain 2 87 55): 0.031 µg/mL (≈ 0.0628 µM)
- MIC (MRSA [1]; strain 2 87 77): 0.016 µg/mL (≈ 0.0324 µM)
- MIC (MRSA [1]; strain 2 88 47): 0.016 µg/mL (≈ 0.0324 µM)
- MIC (MRSA [1]; strain 2 88 71): 0.016 µg/mL (≈ 0.0324 µM)
- MIC (MRSA [1]; strain 2 88 83): 0.008 µg/mL (≈ 0.0162 µM)
- MIC (MRSA [1]; strain 2 88 84): 0.004 µg/mL (≈ 0.0081 µM)
- MIC (MRSA [1]; strain 2 89 13): 0.016 µg/mL (≈ 0.0324 µM)
- MIC (MRSA [1]; strain 2 89 17): 0.008 µg/mL (≈ 0.0162 µM)
- MIC (MRSA [1]; strain 2 90 62): 0.016 µg/mL (≈ 0.0324 µM)
- MIC (MRSA [1]; strain 2 90 86): 0.016 µg/mL (≈ 0.0324 µM)
- MIC (MRSA [1]; strain 2 90 98): 0.031 µg/mL (≈ 0.0628 µM)
- MIC (MRSA [1]; strain 2 91 55): 0.031 µg/mL (≈ 0.0628 µM)
- MIC (MRSA [1]; strain 2 91 79): 0.016 µg/mL (≈ 0.0324 µM)
- MIC (MRSA [1]; strain 2 91 84): 0.031 µg/mL (≈ 0.0628 µM)
- MIC (MRSA [1]; strain 2 93 06): 0.062 µg/mL (≈ 0.126 µM)
- MIC (MRSA [1]; strain 2 93 24): 0.031 µg/mL (≈ 0.0628 µM)
- MIC (MRSA [1]; strain 2 93 30): 0.031 µg/mL (≈ 0.0628 µM)
- MIC (MRSA [1]; strain 2 95 78): 0.031 µg/mL (≈ 0.0628 µM)
- MIC (MRSA [1]; strain 2 96 95): 0.031 µg/mL (≈ 0.0628 µM)
- MIC (MRSA [1]; strain 2 97 09): 0.016 µg/mL (≈ 0.0324 µM)
- MIC (MRSA [1]; strain 3 03 39): 0.016 µg/mL (≈ 0.0324 µM)
- MIC (MRSA [1]; strain 3 65 31): 0.016 µg/mL (≈ 0.0324 µM)
- MIC (MRSA [1]; strain 3 65 39): 0.016 µg/mL (≈ 0.0324 µM)
- MIC (MRSA [1]; strain 3 80 43): 0.002 µg/mL (≈ 0.00405 µM)
- MIC (MRSA [1]; strain 3 80 68): 0.008 µg/mL (≈ 0.0162 µM)
- MIC (MRSA [1]; strain USA400Padm): 0.062 µg/mL (≈ 0.126 µM)
- MIC50 (MRSA [1]; 101 strains): 0.031 µg/mL (≈ 0.0628 µM)
- MIC90 (MRSA [1]; 101 strains): 0.062 µg/mL (≈ 0.126 µM)
- MIC range (MRSE; N = 4): 0.002 to 0.004 µg/mL
- MIC (MRSE; strain 9 25): 0.004 µg/mL (≈ 0.0081 µM)
- MIC (MRSE; strain 9 26): 0.002 µg/mL (≈ 0.00405 µM)
- MIC (MRSE; strain 9 27): 0.002 µg/mL (≈ 0.00405 µM)
- MIC (MRSE; strain 9 28): 0.004 µg/mL (≈ 0.0081 µM)
- MIC (C. difficile; Clostridioides difficile, BAA1805, strain BAA-1805, read-out: MIC): 0.031 µg/mL (≈ 0.0628 µM)
- MIC range (C. difficile; N = 9, toxigenic panel): 0.0078 to 0.0630 µg/mL
- MIC (E. coli): 0.5 µg/mL (≈ 1.01 µM)
- microsomal CLint at 1 μM ([2]; read-out: MLM Clint): 11.9 µL/min/mg
- half-life at 1 μM ([2]; read-out: MLM t1/2): 58.2 min
- fraction unbound (Serum protein binding): 0.012
- spontaneous resistance frequency (MRSA [3]): < 5.0 × 10^−9
- IC50 at 3 min (hERG K+ channel): > 50 µM
